“Also recorded” adds a separate entry of the source. Where two headings read alike, the source gives them in different places.
Tests used:
[1] = test system: murine splenocytes; assay: ConA mitogen-stimulated proliferation of murine splenocytes ([3H]-thymidine incorporation); assay type: cell-based, mouse (BALB/c); conditions: for inhibition of ConA induced murine splenocyte proliferation (cpm), in words: ConA 1 μg/ml, BALB/c splenocytes
Experimental: (§1) Proliferation was assessed by the incorporation of [^3H]-thymidine into DNA. Eight-week-old female BALB/c mice were obtained from Harlan (Bicester, Oxon, UK) and given food and water ad libitum. Splenocyte suspensions were prepared by removing the spleens and placing them into RPMI 1640 medium. The spleens were forced through 70-μm-pore-size wire gauzes using the plunger from a 5-ml syringe to produce a single cell suspension. The cells were pelleted by centrifugation, and erythrocytes were lysed with 0.017 M Tris, 0.144 M ammonium chloride buffer, pH 7.2. Leucocytes were washed twice with RPMI 1640 medium with 2% (vol/vol) foetal calf serum (FCS) and resuspended in complete cell culture medium (CTCM) consisting of RPMI 1640 medium with 5% FCS, 2 mM L-glutamine, and 5×10^−5 M 2-mercaptoethanol. HSL compounds were tested at doubling down dilutions ranging from 1 mM to 0.1 μM in a final volume of 200 μl of CTCM, containing ConA (Sigma, Poole, UK) at 1 μg/ml and 100,000 spleen cells. Following incubation for 48 h at 37° C. in 5% CO2-air, 0.25 μCi [^3H]-thymidine (Amersham) in 10 μl volume made up in RPMI 1640 medium was added and the cells were incubated for a further 24 h. Cells were harvested onto fibreglass filters with a Packard filtermate harvester. After the addition of 25 μl of MicroScint-O (Packard) to each well the filters were counted with the Packard TopCount scintillation counter.
(§2) Mitogen (Concanavalin A) induced murine splenocyte proliferation was indicated by the incorporation of tritated thymidine into the DNA in the mouse spleen cells as shown by counts per minute using the scintillation counter. The inhibitory effect of an HSL compound being tested on cell proliferation was indicated by a reduction in counts per minute.
as §1, with “70 μm pore size” for “70-μm-pore-size”, “5 ml” for “5-ml”, “The title compound was” for “HSL compounds were”, “dilutions” for “dilutions ranging from 1 mM to 0.1 μM in a final volume of 200 μl of CTCM,”, “g/ml” for “μg/ml”, “COrair,” for “CO2-air,”
as §2, with “the title” for “an HSL”

[2] = test system: IL-2; assay: Release of IL-2 from BALB/c splenocytes stimulated with ConA; conditions: ConA 1 μg/ml
[3] = test system: TNFα; conditions: Infection and Immunity vol.66 no.1, 1998; cited from earlier work
[4] = test system: human PBMC; assay: ConA mitogen-stimulated proliferation of human PBMC ([3H]-thymidine incorporation); assay type: cell-based; conditions: for IC50: Experiment II, read-out: IC50 in inhibition of ConA induced cell proliferation of PBMC
Experimental: Blood specimens were obtained with consent from healthy human volunteers. Human peripheral blood mononuclear cells (PBMC) were isolated from heparinised whole blood by buoyant density centrifugation over Histopaque 1077 (Sigma, Poole, UK) at 600 g for 20 minutes. PBMC harvested from the ‘buffy’ layers were washed twice with RPMI 1640 medium and resuspended in CTCM. […] Human PBMC were incubated for 48 h at 37° C. in 5% CO2-air, followed by pulsing with 0.25 μCi [^3H]-thymidine (see above). After a further incubation of 24 h cells were harvested onto fibreglass filters and then counted in the presence of MicroScint-O with the Packard TopCount.
Concanavalin induced cell proliferation of human peripheral blood mononuclear cells (PBMC) was tracked, as described in I above, by a measurement of counts per minute using the scintillation counter. The inhibitory effect of an HSL compound being tested on cell proliferation was indicated by a reduction in counts per minute. […] Columns B, C and D represent different sources of human PBMC samples used.
Plots of counts per minute (cpm) against the concentration of the quorum sensing molecules and the vehicle are shown in FIG. 11.

[5] = test system: murine spleen cells; conditions: Infection and Immunity vol.66 no.1, 1998; cited from earlier work

With CCCCCCCc1[nH]c2ccccc2c(=O)c1O [PQS] the “inhibition of ConA induced murine splenocyte proliferation (cpm), in words” value [1] was “inhibit the proliferation”, the “inhibition of ConA induced murine splenocyte proliferation (cpm), in words” value ([1]; listed as 2-heptyl-3-hydroxy-4(1H)quinolone) was “inhibits splenocyte proliferation” and the “inhibition of release of IL-2 from BALB/c splenocytes, in words” value [2] was “inhibit the release of IL-2”.

For CCCCCCCCCC(=O)CC(=O)N[C@H]1CCOC1=O [Example 6], the “inhibition of TNFα production by LPS-stimulated adherent murine peritoneal macrophages” value [3] is listed as “inhibiting”, the “effect of OdDHL alone on ConA induced hPBMC proliferation” value ([4]; 6.25 μM, alone) is listed as “inactive” and the “inhibition of ConA induced proliferation of human PBMC (cpm), in words” value ([4]; ConA 1 μg/ml) is listed as “inhibited proliferation of human PBMC”. It also gave an IC50 ([4]; human PBMC source B) of 60 µM, an IC50 ([4]; human PBMC source C) of 7 µM and an IC50 ([4]; human PBMC source D) of 34 µM. The “effect of OdDHL alone on murine splenocyte proliferation” value ([1]; 6.25 μM, alone) was “inactive”, the IC50 ([1]; ConA 1 μg/ml, 100,000 spleen cells, Experiment I, read-out: IC50 in inhibition of ConA induced murine splenocyte proliferation) was 4 µM and the “inhibition of ConA induced murine splenocyte proliferation (cpm), in words” value ([1]; listed as OdDHL) was “inhibits splenocyte proliferation; also recorded: inhibit the proliferation”. For the same molecule, the “inhibition of ConA mitogen stimulated proliferation of murine spleen cells” value [5] was “inhibiting” and the “inhibition of release of IL-2 from BALB/c splenocytes, in words” value [2] was “inhibit the release of IL-2”.
